Drawing on the supplement of paper PMC10307832, this text covers relative viability for one cell line.

Holding throughout (assay): relative viability (nuclei count vs DMSO), 5 days (fraction); higher = more cells survive
Compound in the assay “Venetoclax + Pemetrexed”: CC1(C)CCC(CN2CCN(c3ccc(C(=O)NS(=O)(=O)c4ccc(NCC5CCOCC5)c([N+](=O)[O-])c4)c(Oc4cnc5[nH]ccc5c4)c3)CC2)=C(c2ccc(Cl)cc2)C1 [Venetoclax] + Nc1nc2[nH]cc(CCc3ccc(C(=O)N[C@@H](CCC(=O)O)C(=O)O)cc3)c2c(=O)[nH]1 [Pemetrexed] (partner 0.2 µM)
In a few lines:
(§1)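 For relative viability, nuclei counts in treated wells were divided by those in vehicle wells. Lung cancer cell lines had been pin-tool dosed in 1536-well plates the day after seeding and cultured for 5 days, then fixed and stained in one step (final 0.05% Triton X-100, 1% formaldehyde, 1 ug/ml Hoechst) and imaged at 4×. Doses were one drug alone or a fixed anchor-drug dose plus five library-drug doses (not always all listed) in √10 steps, and values are duplicate-plate medians.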

Compound in the assay “Venetoclax + Decitabine”: CC1(C)CCC(CN2CCN(c3ccc(C(=O)NS(=O)(=O)c4ccc(NCC5CCOCC5)c([N+](=O)[O-])c4)c(Oc4cnc5[nH]ccc5c4)c3)CC2)=C(c2ccc(Cl)cc2)C1 [Venetoclax] + Nc1ncn([C@H]2C[C@H](O)[C@@H](CO)O2)c(=O)n1 [Decitabine] (partner 2 µM)
Summed up:
as §1

Compound in assay [1]: Cn1cnc2c(F)c(Nc3ccc(Br)cc3Cl)c(C(=O)NOCCO)cc21 [Selumetinib] + CC(=O)c1c(C)c2cnc(Nc3ccc(N4CCNCC4)cn3)nc2n(C2CCCC2)c1=O [Palbociclib] (partner 0.5 µM)
In a few lines: as §1

Compound in the assay “Selumetinib + Decitabine”: Cn1cnc2c(F)c(Nc3ccc(Br)cc3Cl)c(C(=O)NOCCO)cc21 [Selumetinib] + Nc1ncn([C@H]2C[C@H](O)[C@@H](CO)O2)c(=O)n1 [Decitabine] (partner 2 µM)
Summed up: as §1

Regarding UMC-11, the relative viability was found to be 0.782 with Venetoclax + Pemetrexed (first compound 0.01 µM); 0.666 in the assay with Venetoclax + Pemetrexed (first compound 0.03162 µM); 0.731 in the assay with Venetoclax + Pemetrexed (first compound 0.1 µM); 0.752 with Venetoclax + Pemetrexed (first compound 0.3162 µM); 0.736 with Venetoclax + Pemetrexed (first compound 1 µM); 0.705 in the assay with Venetoclax + Decitabine (first compound 0.01 µM). In addition, the relative viability with Venetoclax + Decitabine (first compound 0.03162 µM) amounted to 0.595; in the assay with Venetoclax + Decitabine (first compound 0.1 µM) it was 0.48; with Venetoclax + Decitabine (first compound 0.3162 µM), 0.686; in the assay with Venetoclax + Decitabine (first compound 1 µM), 0.608; in assay [1] (first compound 0.02 µM) it was 0.309; in assay [1] (first compound 0.06325 µM), 0.37. Moreover, the relative viability worked out at 0.306 in assay [1] (first compound 0.2 µM); 0.34 in assay [1] (first compound 0.6325 µM); 0.653 with Selumetinib + Decitabine (first compound 0.02 µM); 0.624 in the assay with Selumetinib + Decitabine (first compound 0.06325 µM); 0.619 in the assay with Selumetinib + Decitabine (first compound 0.2 µM); 0.643 in the assay with Selumetinib + Decitabine (first compound 0.6325 µM).
